Values of other authors, collected in US10960001B2, “Opioid agonist / antagonist combination dosage forms” (KASHIV PHARMA LLC, priority 2017, dated 2021).

Key:
[1] = 25° C.

| Structure (SMILES) | solubility in water [1] | oral bioavailability (after intake of therapeutic doses) | bioavailability with oral ingestion (oral ingestion) |
| --- | --- | --- | --- |
| C=CCN1CC[C@]23c4c5ccc(O)c4O[C@H]2C(=O)CC[C@@]3(O)[C@H]1C5 [Naloxone free base, naloxone] | about 1.4 mg/mL | – | – |
| C=CCN1CC[C@]23c4c5ccc(O)c4O[C@H]2C(=O)CC[C@@]3(O)[C@H]1C5 [Naloxone, naloxone] | – | 2-3% | about 2% |
